Values quoted from earlier work in patent US4722394A, “Determining residual oil saturation by radioactively analyzing injected CO2 and base-generating tracer-providing solution” (Shell Oil Company, priority 1986, dated 1988).

In the case of `O=C=O` [CO2, carbon dioxide], the “distribution coefficient, Ki (ratio of concentration of tracer in the oil phase to that in the water phase)” value is given as “about 2”.
